We go through 21 compounds from patent publication US10954252B1, “Inhibitors of human immunodeficiency virus replication” (ViiV HEALTHCARE UK (NO.5) LIMITED, priority 2017, dated 2021).

In series [1] the test system is recombinant NL4-3 virus (nef section replaced with Renilla luciferase gene) in MT-2 cells. Put plainly: HIV cell culture assay (antiviral activity, luciferase readout). In kind it is cell-based. The conditions noted are these: MT-2 cells infected for 4-5 days with recombinant NL4-3 luciferase virus. The gist of the method:
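NL4-3 reporter virus carrying Renilla luciferase in place of part of nef, produced in 293T cells, was used to infect MT-2 cells for 4-5 days with serial compound dilutions. Luciferase activity was read with a live-cell substrate; EC50 derived from the median effect equation.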

The nature of series [2]: Compound cytotoxicity, XTT-based colorimetric assay. The format is cell-based. The gist of the method:
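CC50 from uninfected MT2 cells run under the antiviral-assay protocol without virus. Viability read on day 4 by XTT colorimetric assay.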
(Tetrazolium assays rely on reduction of a dye to a coloured formazan, in cell work by metabolically active cells.)

The mark [3] stands for this setting: human, uninfected MT2 cells, Table 1a, day 4, XTT.
Where [4] appears, read: human, uninfected MT2 cells, Table 1, day 4, XTT.

Where a name gives a salt, the structure may show the parent alone. A value given as a limit tells only on which side of the number the result lay.

One may read the EC50 as the midpoint of the concentration-response curve. As a reminder, the CC50 is the concentration that lowers cell viability or growth by half. `Cn1nc(NS(C)(=O)=O)c2c(Cl)ccc(-n3c([C@H](Cc4cc(F)cc(F)c4)NC(=O)Cn4ccc(C(F)(F)F)n4)nc4cc(C(F)(F)F)ccc4c3=O)c21` (single isomer, unassigned) [Example 141]: the EC50 in series [1] (Table 1a) was 217 nM. Further, the half-maximal cytotoxic concentration (CC50) at 4 days in series [2] (setting [3]) is greater than 1000 nM.

Turning to `Cn1nc(NS(C)(=O)=O)c2c(Cl)ccc(-n3c([C@H](Cc4cc(F)cc(F)c4)NC(=O)Cn4ccc(C5CC5)n4)nc4cccc(C(F)(F)F)c4c3=O)c21` (single isomer, unassigned) [Example 136], the EC50 in series [1] (Renilla, NL43, Table 1a) stood at 38.9 nM. Moreover, the 50% cytotoxic concentration (CC50) at 4 days in series [2] (setting [3]) is greater than 1000 nM.

Take `CS(=O)(=O)Nc1nn(CC(F)F)c2c(-c3nc4ccccc4nc3[C@H](Cc3cc(F)cc(F)c3)NC(=O)Cn3nc(C(F)F)c4c3C(F)(F)[C@@H]3C[C@H]43)ccc(Cl)c12` [Example 96, N—((S)-1-(3-(4-chloro-1-(2,2-difluoroethyl)-3-(methylsulfonamido)-1H-indazol-7-yl)quinoxalin-2-yl)-2-(3,5-difluorophenyl)ethyl)-2-((3bS,4aR)-3-(difluoromethyl)-5,5-difluoro-3b,4,4a,5-tetrahydro-1H-cyclopropa[3,4]cyclopenta[1,2-c]pyrazol-1-yl)acetamide]: the 50% effective concentration (EC50) in series [1] (Renilla, NL43, Table 1a) is 0.26 nM. In series [2] (setting [3]), this compound returned a half-maximal cytotoxic concentration (CC50) at 4 days greater than 1000 nM.

Turning to `CC(C)(c1ccc2c(=O)n(-c3ccc(Cl)c4c(NS(=O)(=O)C5CC5)nn(CC(F)F)c34)c([C@H](Cc3cc(F)cc(F)c3)NC(=O)Cn3nc(C(F)F)c4c3C(F)(F)[C@@H]3C[C@H]43)nc2c1)S(C)(=O)=O` [Example 214, N—((S)-1-(3-(4-chloro-3-(cyclopropanesulfonamido)-1-(2,2-difluoroethyl)-1H-indazol-7-yl)-7-(2-(methylsulfonyl)propan-2-yl)-4-oxo-3,4-dihydroquinazolin-2-yl)-2-(3,5-difluorophenyl)ethyl)-2-((3bS,4aR)-3-(difluoromethyl)-5,5-difluoro-3b,4,4a,5-tetrahydro-1H-cyclopropa[3,4]cyclopenta[1,2-c]pyrazol-1-yl)acetamide, TFA], the EC50 in series [1] (Renilla, NL43, Table 1a) was 0.071 nM. The compound further had a 50% cytotoxic concentration (CC50) at 4 days in series [2] (setting [3]) greater than 1000 nM.

In the case of `O=C(Cn1nc(C(F)F)c2c1C(F)(F)[C@@H]1C[C@H]21)N[C@@H](Cc1cc(F)cc(F)c1)c1nc2ccccc2c(=O)n1-c1ccc(Cl)cc1` [Example 124, N—((S)-1-(3-(4-chlorophenyl)-4-oxo-3,4-dihydroquinazolin-2-yl)-2-(3,5-difluorophenyl)ethyl)-2-((3bS,4aR)-3-(difluoromethyl)-5,5-difluoro-3b,4,4a,5-tetrahydro-1H-cyclopropa[3,4]cyclopenta[1,2-c]pyrazol-1-yl)acetamide], the half-maximal effective concentration (EC50) in series [1] (Renilla, NL43, Table 1a) was determined as 208 nM. The compound also had a 50% cytotoxic concentration (CC50) at 4 days in series [2] (setting [3]) greater than 1000 nM.

As to `C[Si](C)(C)CCOCn1ncc2nc(C(Cc3cc(F)cc(F)c3)NC(=O)Cc3c[nH]c4ccc(F)cc34)c(-c3ccc4scnc4c3)cc21` (stereo not drawn) [Int 6a, N-(1-(6-(benzo[d]thiazol-5-yl)-1-((2-(trimethylsilyl)ethoxy)methyl)-1H-pyrazolo[4,3-b]pyridin-5-yl)-2-(3,5-difluorophenyl)ethyl)-2-(5-fluoro-1H-indol-3-yl)acetamide], the EC50 in series [1] (Renilla, NL43, Table 1) stood at 110 nM. Moreover, in series [2] (human; Table 1; uninfected MT2 cells, day 4, XTT), the CC50 at 4 days was 29200 nM.

As for `COc1cc(F)c2c(=O)n(-c3ccc(Cl)c4c(NS(C)(=O)=O)nn(C)c34)c([C@H](Cc3cc(F)cc(F)c3)NC(=O)Cn3ccc(C4CC4)n3)nc2c1` (single isomer, unassigned) [Example 189], the concentration for a half-maximal effect (EC50) in series [1] (Table 1a) came to 6.46 nM. The half-maximal cytotoxic concentration (CC50) at 4 days in series [2] (setting [3]) was greater than 1000 nM.

As to `CN(C)S(=O)(=O)c1ccc(-c2cc3[nH]ncc3nc2[C@H](Cc2cc(F)cc(F)c2)NC(=O)Cn2nc(C(F)F)c3c2C(F)(F)[C@@H]2C[C@H]32)cc1` [Example 26, 2-((3bS,4aR)-3-(difluoromethyl)-5,5-difluoro-3b,4,4a,5-tetrahydro-1H-cyclopropa[3,4]cyclopenta[1,2-c]pyrazol-1-yl)-N—((S)-2-(3,5-difluorophenyl)-1-(6-(4-(N,N-dimethylsulfamoyl)phenyl)-1H-pyrazolo[4,3-b]pyridin-5-yl)ethyl)acetamide], in series [1] (Renilla, NL43, Table 1a), the EC50 turned out to be 18.7 nM. In series [2] (setting [3]), the midpoint of cytotoxicity, the CC50 at 4 days, lay at 5010 nM.

For the compound `Cn1nc(NS(C)(=O)=O)c2c(Cl)ccc(-c3cc4[nH]ncc4nc3[C@@H](Cc3cc(F)cc(F)c3)NC(=O)Cn3nc(C(F)F)c4c3C(F)(F)[C@@H]3C[C@H]43)c21` [Example 3.8, N—((R)-1-(6-(4-chloro-1-methyl-3-(methylsulfonamido)-1H-indazol-7-yl)-1H-pyrazolo[4,3-b]pyridin-5-yl)-2-(3,5-difluorophenyl)ethyl)-2-((3bS,4aR)-3-(difluoromethyl)-5,5-difluoro-3b,4,4a,5-tetrahydro-1H-cyclopropa[3,4]cyclopenta[1,2-c]pyrazol-1-yl)acetamide], in series [1] (Renilla, NL43, Table 1), the EC50 came out at 21 nM. Moreover, it took 10200 nM to reach half-maximal cytotoxicity in series [2] (setting [4]) (CC50 at 4 days).

As to `CN1Cc2ccc(-c3cc4[nH]ncc4nc3[C@H](Cc3cc(F)cc(F)c3)NC(=O)Cn3nc(C(F)F)c4c3C(F)(F)[C@@H]3C[C@H]43)cc2C1=O` [Example 23, 2-((3bS,4aR)-3-(difluoromethyl)-5,5-difluoro-3b,4,4a,5-tetrahydro-1H-cyclopropa[3,4]cyclopenta[1,2-c]pyrazol-1-yl)-N—((S)-2-(3,5-difluorophenyl)-1-(6-(2-methyl-3-oxoisoindolin-5-yl)-1H-pyrazolo[4,3-b]pyridin-5-yl)ethyl)acetamide], the EC50 in series [1] (Renilla, NL43, Table 1a) was 21.8 nM. Besides, in series [2] (setting [3]), the midpoint of cytotoxicity, the CC50 at 4 days, lay at 10000 nM.

With `Cc1ccc(C)c2c(=O)n(-c3ccc(Cl)c4c(NS(C)(=O)=O)nn(C)c34)c(C(Cc3cc(F)cc(F)c3)NC(=O)Cn3nc(C(F)F)c4c3C(F)(F)[C@@H]3C[C@H]43)nc12` (mixture of isomers) [Example 67], the half-maximal effective concentration (EC50) in series [1] (Renilla, NL43, Table 1a) was 183 nM. Further, in series [2] (setting [3]), the CC50 at 4 days is greater than 1000 nM.

Turning to `Cn1nc(NS(C)(=O)=O)c2c(Cl)ccc(-c3cc4[nH]cnc4nc3C(Cc3cc(F)cc(F)c3)NC(=O)Cn3nc(C(F)F)c4c3C(F)(F)[C@@H]3C[C@H]43)c21` (single isomer, unassigned) [Example 4.1], the EC50 in series [1] (Table 1) was determined as 230 nM. The compound further showed a CC50 at 4 days in series [2] (setting [4]) greater than 10000 nM.

For `CN(C)S(=O)(=O)c1ccc(-n2c([C@H](Cc3cc(F)cc(F)c3)NC(=O)Cn3nc(C(F)F)c4c3C(F)(F)[C@@H]3C[C@H]43)nc3ncccc3c2=O)cc1` [Example 32, 2-[(2S,4R)-9-(difluoromethyl)-5,5-difluoro-7,8-diazatricyclo[4.3.0.0^2,4]nona-1(6),8-dien-7-yl]-N-[(1S)-2-(3,5-difluorophenyl)-1-{3-[4-(dimethylsulfamoyl)phenyl]-4-oxo-3H,4H-pyrido[2,3-d]pyrimidin-2-yl}ethyl]acetamide], the EC50 in series [1] (Renilla, NL43, Table 1a) was determined as 1.1 nM. In series [2] (setting [3]), this compound gave a half-maximal cytotoxic concentration (CC50) at 4 days greater than 10000 nM.

Regarding `Cn1nc(NS(C)(=O)=O)c2c(Cl)ccc(-n3c([C@H](Cc4cc(F)cc(F)c4)NC(=O)Cn4nc5c(c4C(F)F)CCC5)nc4ncccc4c3=O)c21` (single isomer, unassigned) [Example 48.2], the EC50 in series [1] (Renilla, NL43, Table 1a) was found to be 0.16 nM. Besides, the half-maximal cytotoxic concentration (CC50) at 4 days in series [2] (setting [3]) was greater than 1000 nM.

In the case of `CN(c1nn(C)c2c(-c3cc4c(ccn4C)nc3[C@H](Cc3cc(F)cc(F)c3)NC(=O)Cn3nc(C(F)F)c4c3C(F)(F)[C@@H]3C[C@H]43)ccc(Cl)c12)S(C)(=O)=O` (single isomer, unassigned) [Example 64], the EC50 in series [1] (Renilla, NL43, Table 1a) came to 4 nM. The compound also had a CC50 at 4 days in series [2] (setting [3]) greater than 10000 nM.

In the case of `O=C(Cn1nc(C(F)F)c2c1C(F)(F)[C@@H]1C[C@H]21)N[C@H](Cc1cc(F)cc(F)c1)c1nc2cc[nH]c2cc1-c1ccc(S(=O)(=O)N2CCOCC2)cc1` [Example 66, 2-((3bS,4aR)-3-(difluoromethyl)-5,5-difluoro-3b,4,4a,5-tetrahydro-1H-cyclopropa[3,4]cyclopenta[1,2-c]pyrazol-1-yl)-N—((R)-2-(3,5-difluorophenyl)-1-(6-(4-(morpholinosulfonyl)phenyl)-1H-pyrrolo[3,2-b]pyridin-5-yl)ethyl)acetamide], the concentration giving a half-maximal response (EC50) in series [1] (Renilla, NL43, Table 1a) was 1540 nM. Besides, the midpoint of cytotoxicity in series [2] (setting [3]), the CC50 at 4 days, lay at 10000 nM.

For the compound `O=C(Cn1nc(C(F)F)c2c1C(F)(F)[C@@H]1C[C@H]21)N[C@@H](Cc1cc(F)cc(F)c1)c1nc2cn[nH]c2cc1-c1ccc2ccnn2c1` [Example 10.36, 2-((3bS,4aR)-3-(difluoromethyl)-5,5-difluoro-3b,4,4a,5-tetrahydro-1H-cyclopropa[3,4]cyclopenta[1,2-c]pyrazol-1-yl)-N—((S)-2-(3,5-difluorophenyl)-1-(6-(pyrazolo[1,5-a]pyridin-6-yl)-1H-pyrazolo[4,3-b]pyridin-5-yl)ethyl)acetamide], the concentration for a half-maximal effect (EC50) in series [1] (Renilla, NL43, Table 1) worked out at 80 nM. Further, the CC50 at 4 days in series [2] (setting [4]) was greater than 10000 nM.

Take `Cn1nc(NS(C)(=O)=O)c2c(Cl)ccc(-n3c([C@H](Cc4cc(F)cc(F)c4)NC(=O)Cn4nc(C(F)F)c5c4C(F)(F)[C@@H]4C[C@H]54)nc4c(Cl)cccc4c3=O)c21` (single isomer, unassigned) [Example 101]: the half-maximal effective concentration (EC50) in series [1] (Table 1a) came out at 335 nM. The CC50 at 4 days in series [2] (setting [3]) is greater than 1000 nM.

Regarding `Cn1nc(NS(C)(=O)=O)c2c(Cl)ccc(-n3c([C@H](Cc4cc(F)cc(F)c4)NC(=O)Cn4nc(C(F)F)c5c4C(F)(F)[C@@H]4C[C@H]54)nc4c(F)cc(F)cc4c3=O)c21` (single isomer, unassigned) [Example 74], in series [1] (Renilla, NL43, Table 1a), the 50% effective concentration (EC50) is 0.0513 nM. Further, in series [2] (setting [3]), the CC50 at 4 days was greater than 1000 nM.

Turning to `CC(C)c1ccc(-n2c([C@H](Cc3cc(F)cc(F)c3)NC(=O)Cc3c[nH]c4ccc(O)cc34)nc3ccccc3c2=O)cn1` [Example 10.33], the EC50 in series [1] (Renilla, NL43, Table 1) was found to be 49 nM. The compound also returned a cytotoxic concentration (CC50) at 4 days in series [2] (setting [4]) greater than 10000 nM.

For the compound `O=C(Cc1c[nH]c2ccc(O)cc12)N[C@@H](Cc1cc(F)cc(F)c1)c1nc2ncccc2c(=O)n1-c1ccc2scnc2c1` [Example 10.23], the EC50 in series [1] (Renilla, NL43, Table 1) is 2.7 nM. This compound had a cytotoxic concentration (CC50) at 4 days in series [2] (setting [4]) greater than 10000 nM.
